These results are taken from patent US20230167109A1, “Aminopiperidine Amides, Derivatives, Compositions, and Uses Related to CXCR4 Modulation” (Emory University, priority 2020, published 2023).

Assay [1] deals with MDA-MB-231 cells. Kind of assay: In vitro Matrigel invasion assay (chemotaxis towards CXCL12). It is filed as cell-based. The settings on record: Homo sapiens, compound at 100 nM, 200 ng/ml CXCL12 as chemoattractant, 22 h. On the procedure: (§1) EC (effective concentration) was calculated as the concentration at which the compound blocks >50% of CXCR4-targeted peptidomimetic conjugate (rhodamine Red X-TN14003). The inhibition % against the chemoattract, CXCL12 was determined by Matrigel invasion assay using 100 nM of compounds.
(§2) After computer evaluation of chemical libraries, seven compounds were tested by in vitro assays. The first binding assay quantified the affinity of compounds to the receptor by measuring the fluorescence of CXCR4-targeted peptidomimetic conjugate (rhodamine Red X-TN14003) after treating CXCR4-positive with each compound, which presents a lower fluorescent intensity for the compound with higher affinity. […] As a secondary orthogonal functional assay, Matrigel invasion assays were performed which measures the inhibitory efficacies of compounds against the chemotaxis between CXCR4-positive cells and the chemokine, CXCL12.
Matrigel invasion chambers were used for invasion assays. MDA-MB-231 cells were cultured on a layer of Matrigel in the upper chamber with compounds at 100 nM, while 200 ng/ml of CXCL12 was added in the lower chamber as a chemoattractant. […] Invading cells at the bottom of the Matrigel were fixed in methanol and stained with H&E. The percentage of invading cells was determined by counting the H&E-stained cells.

In assay [2] the test system is CXCR4-expressing infiltrating cells. Kind of assay: Immunohistochemistry of paw tissue with anti-CXCR4 antibody. The settings on record: paw tissue of Z7R-treated mouse vs inflamed tissue. It is filed as in vivo. On the procedure:
The avidin-biotin complex method was used to detect the proteins CXCR4 with anti-CXCR4 antibody (R&D System) at dilution 1:500. Formalin-fixed and paraffin-embedded tissues were deparaffinized and subsequently microwaved in 10 mM of sodium citrate buffer (pH 6.0) to retrieve antigens. After pre-incubation with hydrogen peroxide, avidin/biotin blocking kit (Invitrogen Co, CA), and horse serum (Vector Laboratories), the primary antibodies were applied overnight at 4° C. temperature. After incubation with the secondary antibody (rabbit anti-mouse biotinylated; Invitrogen Co, CA), the avidin-biotin complex was added and the enzyme activity was visualized with diaminobenzidine (ABC kit, Vector laboratories). Counterstaining was performed with hematoxylin.

Assay [3] deals with T1, CXCR4 (Homo sapiens, UniProt P61073).
T1 construct: endogenous in cells; host or cells: MDA-MB-231
The experiment in a line: In vitro binding assay: blocking of CXCR4-targeted TN14003 conjugate on MDA-MB-231 cells. On the procedure: as §1, §2
MDA-MB-231 cells were cultured in an eight-well slide chamber for two days. The cells were pre-incubated with the compounds for 15 min, and then fixed with 4% formaldehyde. […] Pictures were analyzed quantitatively with ImageJ. EC (effective concentration) is determined for the concentration at with the compound blocks >50% of CXCR4-targeted TN14003 conjugate using 1, 10, 100, and 1000 nM of compounds. […]

The test system of assay [4] is carrageenan-induced paw edema. Kind of assay: In vivo anti-inflammation study, carrageenan-induced mouse paw edema model. The note with it: 10 mg/kg i.p., once a day; mice sacrificed 74 h after carrageenan; n=5. On the procedure:
Acute paw inflammation was induced by subcutaneous injection of 50 μL of λ-carrageenan in left hind paw. The mice in the treatment group were all administered Z7R at 10 mg/kg i.p., while control animals received corresponding i.p. injection of vehicle. Acute inflammation was induced by subcutaneous injection of […], of λ-carrageenan (1% w/v in saline) into the left hind paws of male nude mice (6 weeks, 20 g, Jackson Laboratory, Strain JAZ 007850 J:NU); the other hind paw was used as the non-inflammation control. The compounds were administered intraperitoneally (i.p. injection), 30 min after carrageenan challenge with the dose of 10 mg/kg using the formulation of 10% DMSO and 40% (2-hydroxypropyl)-β-cyclodextrin (CD) in PBS, and then once a day following the initial dose. The mice were sacrificed 74 h after inflammation was induced and 2 h after the last injection of the compounds. The hind paws of the mice were photographed, the thicknesses of the paws were measured by a caliper, and the weights of the paws were measured by a balance after transecting at the level of the malleoli. To quantify the edema, the measured values of the untreated group were subtracted from the treated group. The inflammation suppression percentage was calculated by comparing the compound-treated groups to the control group (n=5). Fixed paw tissue was sliced and stained with H&E for histology study.
Background: In the carrageenan paw model, swelling and tenderness develop within hours.

T1 sequence (P61073 whole entry): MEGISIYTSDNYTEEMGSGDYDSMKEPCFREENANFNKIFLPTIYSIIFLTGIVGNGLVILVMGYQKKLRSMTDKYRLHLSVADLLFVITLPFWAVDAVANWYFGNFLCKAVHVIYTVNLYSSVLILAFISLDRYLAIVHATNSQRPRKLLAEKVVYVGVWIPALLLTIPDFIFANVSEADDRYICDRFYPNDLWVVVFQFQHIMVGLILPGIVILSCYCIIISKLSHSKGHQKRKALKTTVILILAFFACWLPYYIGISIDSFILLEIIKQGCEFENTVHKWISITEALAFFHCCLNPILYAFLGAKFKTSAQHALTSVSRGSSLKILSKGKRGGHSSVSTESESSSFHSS

Take `N=C(N)NCCCC(N)C(=O)NC1CCN(C(=O)CCn2ccc3ccncc32)CC1` (stereo not drawn) [Z7R, N-(1-(3-(pyrrolo[2,3-c]pyridin-1-yl)propanoyl)piperidin-4-yl)-2-amino-5-guanidinopentanamide]: the inhibition at 0.1 µM in assay [1] came to 78.5%. In addition, the “CXCR4-expressing infiltrating cells in carrageenan-induced inflammatory tissue” value in assay [2] is recorded as “reduced presence of CXCR4s”. In assay [3] (fitted with GraphPad Prism 5, read-out: affinity IC50), the half-inhibitory concentration (IC50) stood at 1.25 nM. In addition, the “anti-inflammatory activity: reduction of edema (paw) weight vs untreated mice” value in assay [4] is 50%.
For the compound `NC(C(=O)NC1CCN(C(=O)CCn2ccc3ccncc32)CC1)c1ccccc1` (stereo not drawn) [ZINC 72372983, N-(1-(3-(pyrrolo[2,3-c]pyridin-1-yl)propanoyl)piperidin-4-yl)-2-amino-2-phenylacetamide], in assay [1], the inhibition at 0.1 µM came out at 69%. In addition, the EC50 in assay [3] (compounds tested at 1, 10, 100 and 1000 nM, read-out: binding affinity (EC, effective concentration: concentration at which the compound blocks more than 50% of rhodamine Red X-TN14003)) came to 100 nM.

What is called inhibition is the change of the read-out against control, counted positive when it falls. A higher inhibition goes with strong suppression. The term IC50 denotes the midpoint of a concentration-inhibition curve.
